Experimental data as given in US20110144353A1, “5-HYDROXY-4-AMINOMETHYL-1-C[…] (CYCLOHEPTYL)--3-ALKO[…] DERIVATIVES, PHARMA[…] SALTS THEREOF AND A METHOD FOR THE PRODUCTION THEREOF” (OBSCHESTVO S ORGANICHENNOY OTVETSTVENNOSTJU <<BINATEKH>>, priority 2008, published 2011).
In brackets after ≈: the same amount, converted by molar mass.

Key:
[1] = tested on: Influenza A/New Caledonia/20/99 (H1N1) Virus; assay: microbe, parasite or virus in culture; type: cell-based; conditions: for MIC50: Influenza A virus, H1N1, MDCK cells, concentration decreasing OD by 50%, solvent alcohol
[2] = tested on: influenza A/Aichi/2/69 (H3N2) virus; assay: Murine influenza pneumonia model; type: in vivo, mice; conditions: for Mean Life Span / Mortality / Survival rate: mice infected with 10 LD50; for Mortality reduction: versus virus control
Procedure: Determination of the efficacy of the compounds in the murine influenza pneumonia model.
The experiments were carried out on 60 white mice weighing 12-15 g. The animals were infected intranasally under light ether anesthesia with the influenza A/Aichi/2/69 (H3N2) virus (10 LD50). The compounds to be tested were administered per os in a dose of 60 or 15 mg/kg/day. The treatment was carried out according to the following scheme: 24 hours and 1 hour before infection, and then 2 times a day (at 8 o'clock in the morning and 8 o'clock in the evening) for 5 days. The chemotherapeutic activity of Arbidol and compound A in the murine influenza pneumonia model was assessed according to two criteria: the index of protection against fatal viral infection and the increase in mean life span of the treated animals as compared with the control group. The mean life span of the mice was calculated according to the following formula: Σf(d−1)/n, where f is the number of mice dying on day d (the surviving mice were also included in f; d in this case=16); n is the number of mice in the group.

| Compound | Activity at 10 μg/mL [1] [%] | MIC50 [1] [µg/mL] | Mean Life Span ([2]; 15 mg/kg/day per os) [days] | Mortality ([2]; 15 mg/kg/day per os) [%] | Survival rate ([2]; 15 mg/kg/day per os) | Mortality reduction ([2]; 15 mg/kg/day per os) [%] | Mean Life Span ([2]; 60 mg/kg/day per os) [days] | Mortality ([2]; 60 mg/kg/day per os) [%] | Survival rate ([2]; 60 mg/kg/day per os) | Mortality reduction ([2]; 60 mg/kg/day per os) [%] | Activity in in vitro experiments compared with Arbidol ([1]; summary of Table 1) | Efficacy in animal experiments ([2]; 15 mg/kg/day) | Activity in animal experiments compared with Arbidol ([2]; summary of Table 2) |
| --- | --- | --- | --- | --- | --- | --- | --- | --- | --- | --- | --- | --- | --- |
| CCOC(=O)c1c(CSc2ccccc2)n(C)c2cc(Br)c(O)c(CN(C)C)c12 [Arbidol, 1-methyl-2-phenylthiomethyl-3-carbethoxy-4-dimethylaminomethyl-5-oxy-6-bromindol] | 89.5 | 6 (≈ 12.6 µM) | 7.3 | 70 | 3/10 | 20 | 10.8 | 40 | 6/10 | 50 |  |  |  |
| CCOC(=O)c1c(C)n(C2CCCCC2)c2ccc(O)c(CN(C)C)c12 [Compound A, 5-hydroxy-4-dimethylaminomethyl-2-methyl-1-cyclohexyl-3-ethoxycarbonyl indole] | 96.5 | 5.4 (≈ 15.1 µM) | 11.5 | 40 | 5/8 | 50 |  |  |  |  | somewhat more active than Arbidol | equal to the efficacy of Arbidol at a dose 4 times higher | significantly more active than Arbidol |
